Test results as given in patent publication US7524846B2, “Arylalkyl- and cycloalkylalkyl-piperazine derivatives and methods of their use” (Wyeth, priority 2003, dated 2009).
Counter-ions that a name gives are not always drawn.

Target: T1, hNET (Homo sapiens, UniProt P23975)
T1 construct: expressed in transfected cells; host or cells: MDCK-Net6 (MDCK cells stably transfected with hNET)
Assay: Norepinephrine (NE) uptake assay in MDCK-Net6 cells
Format: cell-based
Conditions: [3H]NE uptake, MDCK-Net6 cells stably transfected with human hNET; for inhibition at 1 µM: 1 μM test compound; for EC50: test range 1 to 10,000 nM
Procedure: MDCK-Net6 cells, stably transfected with human hNET (Pacholczyk, T., R. D. Blakely, and S. G. Amara, Nature, 1991, 350(6316): p. 350-4) were cultured in growth medium containing high glucose DMEM (Gibco, Cat. No. 11995), 10% FBS (dialyzed, heat-inactivated, US Bio-Technologies, Lot FBD1129HI) and 500 μg/ml G418 (Gibco, Cat. No. 10131). Cells were plated at 300,000/T75 flask and cells were split twice weekly. The JAR cell line (human placental choriocarcinoma) was purchased from ATCC (Cat. No. HTB-144). The cells were cultured in growth medium containing RPMI 1640 (Gibco, Cat. No. 72400), 10% FBS (Irvine, Cat. No. 3000), 1% sodium pyruvate (Gibco, Cat. No. 1136) and 0.25% glucose. Cells were plated at 250,000 cells/T75 flask and split twice weekly. For all assays, cells were plated in Wallac 96-well sterile plates (PerkinElmer, Cat. No. 3983498).
On day 1, cells were plated at 3,000 cells/well in growth medium and maintained in a cell incubator (37° C., 5% CO2). On day 2, growth medium was replaced with 200 μl of assay buffer (25 mM HEPES; 120 mM NaCl; 5 mM KCl; 2.5 mM CaCl2; 1.2 mM MgSO4; 2 mg/ml glucose (pH 7.4, 37° C.)) containing 0.2 mg/ml ascorbic acid and 10 μM pargyline. Plates containing cells with 200 μl of assay buffer were equilibrated for 10 minutes at 37° C. prior to addition of compounds. A stock solution of desipramine was prepared in DMSO (10 mM) and delivered to triplicate wells containing cells for a final test concentration of 1 μM. Data from these wells were used to define non-specific NE uptake (minimum NE uptake). Test compounds were prepared in DMSO (10 mM) and diluted in assay buffer according to test range (1 to 10,000 nM). Twenty-five microliters of assay buffer (maximum NE uptake) or test compound were added directly to triplicate wells containing cells in 200 μl of assay buffer. The cells in assay buffer with test compounds were incubated for 20 minutes at 37° C. To initiate the NE uptake, [^3H]NE diluted in assay buffer (120 nM final assay concentration) was delivered in 25 μl aliquots to each well and the plates were incubated for 5 minutes (37° C.). The reaction was terminated by decanting the supernatant from the plate. The plates containing cells were washed twice with 200 μl assay buffer (37° C.) to remove free radioligand. The plates were then inverted, left to dry for 2 minutes, then reinverted and air-dried for an additional 10 minutes. The cells were lysed in 25 μl of 0.25 N NaOH solution (4° C.), placed on a shake table and vigorously shaken for 5 minutes. After cell lysis, 75 μl of scintillation cocktail was added to each well and the plates were sealed with film tape. The plates were returned to the shake table and vigorously shaken for a minimum of 10 minutes to ensure adequate partitioning of organic and aqueous solutions. The plates were counted in a Wallac Microbeta counter (PerkinElmer) to collect the raw cpm data.
For each experiment, a data stream of cpm values collected from the Wallac Microbeta counter was downloaded to a Microsoft Excel statistical application program. Calculations of EC50 values were made using the transformed-both-sides logistic dose response program written by Wyeth Biometrics Department. The statistical program uses mean cpm values from wells representing maximum binding or uptake (assay buffer) and mean cpm values from wells representing minimum binding or uptake ((1 μM desipramine (hNET) or 1 μM paroxetine (hSERT)). Estimation of the EC50 value was completed on a log scale and the line was fit between the maximum and minimum binding or uptake values. All graphic data representation was generated by normalizing each data point to a mean percent based on the maximum and minimum binding or uptake values. The EC50 values reported from multiple experiments were calculated by pooling the raw data from each experiment and analyzing the pooled data as one experiment.

T1 sequence (P23975 whole entry): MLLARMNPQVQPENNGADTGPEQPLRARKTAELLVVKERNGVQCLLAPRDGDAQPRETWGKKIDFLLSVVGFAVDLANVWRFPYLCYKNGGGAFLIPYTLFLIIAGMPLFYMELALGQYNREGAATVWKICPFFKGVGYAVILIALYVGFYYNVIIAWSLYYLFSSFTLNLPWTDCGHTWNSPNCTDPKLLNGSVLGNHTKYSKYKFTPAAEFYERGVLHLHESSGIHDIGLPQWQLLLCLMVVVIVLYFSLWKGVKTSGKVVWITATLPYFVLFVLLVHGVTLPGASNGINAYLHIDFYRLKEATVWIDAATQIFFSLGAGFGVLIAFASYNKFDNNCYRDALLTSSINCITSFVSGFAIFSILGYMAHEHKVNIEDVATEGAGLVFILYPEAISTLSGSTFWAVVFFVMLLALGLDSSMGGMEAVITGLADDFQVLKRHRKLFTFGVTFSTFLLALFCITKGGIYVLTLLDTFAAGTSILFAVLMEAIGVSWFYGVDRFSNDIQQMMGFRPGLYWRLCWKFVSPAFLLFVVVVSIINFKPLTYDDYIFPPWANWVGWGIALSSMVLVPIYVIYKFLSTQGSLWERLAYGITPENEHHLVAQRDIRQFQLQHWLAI

Row | SMILES | inhibition at 1 µM | EC50
1 | COc1ccc2cc(CN3CCN(CC(c4cccc(Cl)c4)C4(O)CCCCC4)CC3)ccc2c1 (stereo not drawn) [Example 117, 1-(1-(3-chlorophenyl)-2-{4-[(6-methoxy-2-naphthyl)methyl]piperazin-1-yl}ethyl)cyclohexanol dihydrochloride] | 87% | 0.061 µM
2 | CC(CCN1CCN(CC(c2cccc(Cl)c2)C2(O)CCCCC2)CC1)c1ccccc1 (stereo not drawn) [Example 121, 1-{1-(3-chlorophenyl)-2-[4-(3-phenylbutyl)piperazin-1-yl]ethyl}cyclohexanol dihydrochloride] | 97% | 0.022 µM
3 | OC1(C(CN2CCN(Cc3cccc(Oc4ccccc4)c3)CC2)c2cccc(Cl)c2)CCCCC1 (stereo not drawn) [Example 123, 1-{1-(3-chlorophenyl)-2-[4-(3-phenoxybenzyl)piperazin-1-yl]ethyl}cyclohexanol dihydrochloride] | 96% | 0.29 µM
4 | OC1(C(CN2CCN(Cc3ccc4ccccc4c3)CC2)c2cccc(Cl)c2)CCCCC1 (stereo not drawn) [Example 124, 1-{1-(3-chlorophenyl)-2-[4-(2-naphthylmethyl)piperazin-1-yl]ethyl}cyclohexanol dihydrochloride] | 94% | 0.19 µM
5 | OC1(C(CN2CCN(Cc3ccnc4ccccc34)CC2)c2cccc(Cl)c2)CCCCC1 (stereo not drawn) [Example 127, 1-{1-(3-chlorophenyl)-2-[4-(quinolin-4-ylmethyl)piperazin-1-yl]ethyl}cyclohexanol dihydrochloride] | 86% | 0.092 µM
6 | CC(CN1CCN(CC(c2cccc(Cl)c2)C2(O)CCCCC2)CC1)c1ccccc1 (stereo not drawn) [Example 129, 1-{1-(3-chlorophenyl)-2-[4-(2-phenylpropyl)piperazin-1-yl]ethyl}cyclohexanol dihydrochloride] | 81% | 0.43 µM
7 | OC1(C(CN2CCN(Cc3cc4ccccc4o3)CC2)c2cccc(Cl)c2)CCCCC1 (stereo not drawn) [Example 130, 1-[2-[4-(1-benzofuran-2-ylmethyl)piperazin-1-yl]-1-(3-chlorophenyl)ethyl]cyclohexanol dihydrochloride] | 79% | 0.89 µM
8 | OC1(C(CN2CCN(Cc3ccc(OCc4ccccc4)cc3)CC2)c2cccc(Cl)c2)CCCCC1 (stereo not drawn) [Example 131, 1-[2-{4-[4-(benzyloxy)benzyl]piperazin-1-yl}-1-(3-chlorophenyl)ethyl]cyclohexanol dihydrochloride] | 78% | 0.17 µM
9 | OC1(C(CN2CCN(Cc3ccc(Oc4ccccc4)cc3)CC2)c2cccc(Cl)c2)CCCCC1 (stereo not drawn) [Example 132, 1-{1-(3-chlorophenyl)-2-[4-(4-phenoxybenzyl)piperazin-1-yl]ethyl}cyclohexanol dihydrochloride] | 77% | 0.07 µM

Second part, the compound after the results:

Row | inhibition at 1 µM | EC50 | SMILES
10 | 97% | 0.057 µM | OC1(C(CN2CCN(CC3CC3)CC2)c2cccc(Cl)c2)CCCCC1 (stereo not drawn) [Example 118, 1-{1-(3-chlorophenyl)-2-[4-(cyclopropylmethyl)piperazin-1-yl]ethyl}cyclohexanol dihydrochloride]
11 | 97% | 0.11 µM | OC1(C(CN2CCN(CC3CC=CCC3)CC2)c2cccc(Cl)c2)CCCCC1 (stereo not drawn) [Example 119, 1-{1-(3-chlorophenyl)-2-[4-(cyclohex-3-en-1-ylmethyl)piperazin-1-yl]ethyl}cyclohexanol dihydrochloride]
12 | 97% | 0.13 µM | OC1CCCC(CN2CCN(CC(c3cccc(Cl)c3)C3(O)CCCCC3)CC2)O1 (stereo not drawn) [Example 120, 6-({4-[2-(3-chlorophenyl)-2-(1-hydroxycyclohexyl)ethyl]piperazin-1-yl}methyl)tetrahydro-2H-pyran-2-ol dihydrochloride]
13 | 96% | 0.075 µM | OC1(C(CN2CCN(CCc3ccccc3)CC2)c2cccc(Cl)c2)CCCCC1 (stereo not drawn) [Example 122, 1-{1-(3-chlorophenyl)-2-[4-(2-phenylethyl)piperazin-1-yl]ethyl}cyclohexanol dihydrochloride]
14 | 93% | 0.12 µM | OC1(C(CN2CCN(Cc3ccoc3)CC2)c2cccc(Cl)c2)CCCCC1 (stereo not drawn) [Example 125, 1-{1-(3-chlorophenyl)-2-[4-(3-furylmethyl)piperazin-1-yl]ethyl}cyclohexanol dihydrochloride]
15 | 93% | 0.13 µM | OC1(C(CN2CCN(CC3CCCCC3)CC2)c2cccc(Cl)c2)CCCCC1 (stereo not drawn) [Example 126, 1-{1-(3-chlorophenyl)-2-[4-(cyclohexylmethyl)piperazin-1-yl]ethyl}cyclohexanol dihydrochloride]
16 | 83% | 0.49 µM | CCc1ccc(CN2CCN(CC(c3cccc(Cl)c3)C3(O)CCCCC3)CC2)o1 (stereo not drawn) [Example 128, 1-(1-(3-chlorophenyl)-2-{4-[(5-ethyl-2-furyl)methyl]piperazin-1-yl}ethyl)cyclohexanol dihydrochloride]
17 | 77% | 0.46 µM | OC1(C(CN2CCN(Cc3ccncc3)CC2)c2cccc(Cl)c2)CCCCC1 (stereo not drawn) [Example 133, 1-{1-(3-chlorophenyl)-2-[4-(pyridin-4-ylmethyl)piperazin-1-yl]ethyl}cyclohexanol dihydrochloride]
18 | 69% | 0.93 µM | OC1(C(CN2CCN(Cc3cccnc3)CC2)c2cccc(Cl)c2)CCCCC1 (stereo not drawn) [Example 134, 1-{1-(3-chlorophenyl)-2-[4-(pyridin-3-ylmethyl)piperazin-1-yl]ethyl}cyclohexanol dihydrochloride]
